This is an account of results in patent US12503717B2, “Systems and methods for modeling disease and assessing adverse side effects of therapeutics therefor” (NOVOHEART INTERNATIONAL LIMITED, priority 2016, dated 2025).

The conditions of data set [1]: cited from earlier work.
Data set [2] has as its system hvCAS (human ventricular cardiac anisotropic sheet of HES2 hESC-derived ventricular cardiomyocytes). It counts as cell-based. As for the experimental part:
hvCAS preparations were loaded with di-8-ANEPPS (10 μM; D-3167; Molecular Probes)/[…] (0.04%; P-3000MP; Life Technologies) for 1 hour at 37° C. in DMEM-F12, followed by incubation at room temperature (RT) for 15 minutes in Blebbistatin (50 μM, B0560; Sigma-Aldrich) in Tyrode's solution. Tyrode's solution consists of 140 mM NaCl, 5 mM KCl, 1 mM MgCl2, 1 mM CaCl2, 10 mM D-glucose, and 10 mM HEPES at pH 7.4 to minimize potential interference of optical mapping signals by motion artifacts. The dye-loaded hvCAS preparations were bathed in Tyrode's solution which was maintained at 35-37° C. using a culture dish incubator (Warners Instruments). High-resolution optical mapping of AP and conduction properties was performed using a MiCam Ultima (SciMedia, CA, USA) with a 1× objective and a 1× condensing lens to yield a 10 mm by 10 mm field of view. Fluorescence imaging was performed using a halogen light filtered by a 515±35 nm band-pass excitation filter and a 590 nm high-pass emission filter. Data were collected at a sampling rate of 200 Hz and analyzed using BVAna software (SciMedia). A programmable stimulator (Master8; AMPI, Israel) was enrolled to deliver pacing stimuli (10V, 10-ms pulse duration) via a unipolar point-stimulation electrode (Harvard Apparatus, MA, USA) placed perpendicular to the hvCAS surface.
A point stimulation was applied at the center of an […] preparation following the schematic illustration (FIG. 2E) and steady state pacing (10 ms, 10 V) was first applied from 0.5 Hz through to 3 Hz (i.e., 30 to 180 bpm) with 0.5 Hz increments, unless there was a loss of 1:1 capture using Master-8 (AMPI, Israel). A standard (S1-S2) programmed electrical stimulation (PES) protocol was then introduced to further evaluate arrhythmogenicity, similar to what has been previously described^[15]. A train of eight S1 stimuli was delivered at 1.5 Hz followed by a premature extra stimulus (S2) with S1-S2 interval initiated at 550 ms and consecutively shortened in steps of 50 ms until capture failed.
A set of selection criteria was strictly followed before an hvCAS was employed for subsequent drug testing procedures to ensure fair comparison. In particular, the selection criteria included (1) observation of a consistent propagation signal across the whole field of view, (2) a maximum capture frequency of at least 1.5 Hz and (3) no re-entry at baseline. Drugs were then added at three cumulative doses to cover the therapeutic range and HERG IC50 was determined using a conventional technique known in the art.^[33] All drugs were purchased from Sigma-aldrich (MO, USA). […] Steady-state pacing and PES were repeated, as described above, for each dose unless re-entry occurred before the highest dose was applied. Action potential parameters and conduction properties were subsequently analyzed using Clampfit, with APD90 defined as the time from the peak to 90% repolarization. Data are individually presented as mean±SD and statistically compared using Student's t-test with p<0.05 considered statistically significant.

Marks after values point to notes of the source that are not given here.

Regarding `COc1ccccc1OCC(O)CN1CCN(CC(=O)Nc2c(C)cccc2C)CC1` (stereo not shown) [ranolazine], the “clinical QT prolongation / TdP liability” value in data set [1] (human, in vivo) is recorded as “reasonably safe from causing TdP”.

Consider `CCN(CC)CCNC(=O)c1ccc(N)cc1` [PROC, procainamide], for which, in data set [2], the “arrhythmic risk compared to the respective vehicle control (FIG. 3H)” value is listed as “elevated risk”. Also, in data set [2] (human, pH 7.4), the “Chirality of Re-entry: Anticlock-wise” value is given as 3, the “Chirality of Re-entry: Clock-wise” value is reported as 0, the “Chirality of Re-entry: Figure-of-eight” value is on record as 0 and the “Chirality of Re-entry: Multi-origin” value stood at 0. For the same compound, in data set [2] (human, pH 7.4), the “Frequency of re-entries (Mean ± SD)” value came out at 1.53 ± 0.42; the “No. of Re-entry, 1st dose” value was 1^[a]; the “No. of Re-entry, 2nd dose” value was 2; the “No. of Re-entry, 3rd dose” value is 0. For the same compound, in data set [2] (human, pH 7.4), the “fold increase in incidence rate or arrhythmic risk normalized to corresponding vehicle control” value was found to be 2.3 fold.

Turning to `Cc1cccc(C)c1NC(=O)C(C)N` (stereo not shown) [TOC, tocainide], the “arrhythmic risk compared to the respective vehicle control (FIG. 3H)” value in data set [2] is “lower risk”. In data set [2] (human, pH 7.4), the “Chirality of Re-entry: Anticlock-wise” value is 0, the “Chirality of Re-entry: Clock-wise” value came to 1, the “Chirality of Re-entry: Figure-of-eight” value is reported as 1 and the “Chirality of Re-entry: Multi-origin” value was 0. Also, in data set [2] (human, pH 7.4), the “Frequency of re-entries (Mean ± SD)” value was 1.34 ± 0.52; the “No. of Re-entry, 1st dose” value is 0; the “No. of Re-entry, 2nd dose” value is 1^[a]; the “No. of Re-entry, 3rd dose” value is on record as 1. Further, in data set [2] (human, pH 7.4), the “fold increase in incidence rate or arrhythmic risk normalized to corresponding vehicle control” value came out at 0.7 fold.

On to `O=C(NCC1CCCCN1)c1cc(OCC(F)(F)F)ccc1OCC(F)(F)F` (stereo not shown) [FLE, flecainide], for which the “arrhythmic risk compared to the respective vehicle control (FIG. 3H)” value in data set [2] is “elevated risk”. Besides, in data set [2] (human, pH 7.4), the “Chirality of Re-entry: Anticlock-wise” value worked out at 3, the “Chirality of Re-entry: Clock-wise” value came to 1, the “Chirality of Re-entry: Figure-of-eight” value is recorded as 1 and the “Chirality of Re-entry: Multi-origin” value was determined as 0. In data set [2] (human, pH 7.4), the “Frequency of re-entries (Mean ± SD)” value was determined as 1.92 ± 0.37; the “No. of Re-entry, 1st dose” value was 4^[a]; the “No. of Re-entry, 2nd dose” value is 1^[a]; the “No. of Re-entry, 3rd dose” value was 0.

`COc1cc(N)c(Cl)cc1C(=O)NC1CCN(CCCOc2ccc(F)cc2)CC1OC` (stereo not shown) [CISA, cisapride]: in data set [2], the “arrhythmic risk compared to the respective vehicle control (FIG. 3H)” value is “elevated risk”. Also, in data set [2] (human, pH 7.4), the “Chirality of Re-entry: Anticlock-wise” value amounted to 5, the “Chirality of Re-entry: Clock-wise” value was determined as 3, the “Chirality of Re-entry: Figure-of-eight” value was found to be 0 and the “Chirality of Re-entry: Multi-origin” value is 1. In data set [2] (human, pH 7.4), the “Frequency of re-entries (Mean ± SD)” value turned out to be 1.18 ± 0.40; the “No. of Re-entry, 1st dose” value is 2^[a]; the “No. of Re-entry, 2nd dose” value is 4^[a]; the “No. of Re-entry, 3rd dose” value was 3. In addition, in data set [2] (human, pH 7.4), the “fold increase in incidence rate or arrhythmic risk normalized to corresponding vehicle control” value was 2.7 fold. In addition, in data set [1] (nested case-control study), the “risk of arrhythmia or sudden death during hospitalization” value is reported as “doubling or tripling”.

Take `CC(=O)Oc1ccccc1C(=O)O` [ASP, aspirin]: the “arrhythmic risk compared to the respective vehicle control (FIG. 3H)” value in data set [2] is reported as “lower risk”.

As to `CC(C)(C)c1ccc(C(O)CCCN2CCC(C(O)(c3ccccc3)c3ccccc3)CC2)cc1` (stereo not shown) [TERF, terfenadine], in data set [2], the “arrhythmic risk compared to the respective vehicle control (FIG. 3H)” value is on record as “elevated risk” and the “effect on AP at relatively low doses” value is “no apparent effects on AP”. The “fold increase in risk compared to the vehicle control (DMSO)” value in data set [2] (human, 300 nM, pH 7.4) stood at 1.2 fold. In data set [2] (human, pH 7.4), the “Chirality of Re-entry: Anticlock-wise” value was 3, the “Chirality of Re-entry: Clock-wise” value is reported as 1, the “Chirality of Re-entry: Figure-of-eight” value turned out to be 0 and the “Chirality of Re-entry: Multi-origin” value came out at 0. Moreover, in data set [2] (human, pH 7.4), the “Frequency of re-entries (Mean ± SD)” value came to 1.04 ± 0.31; the “No. of Re-entry, 1st dose” value stood at 0; the “No. of Re-entry, 2nd dose” value is 0; the “No. of Re-entry, 3rd dose” value is given as 4. In data set [2] (human, pH 7.4), the “reentrant events at relatively low doses” value is reported as 0 of 16. The “serum concentration associated with clinical TdP” value in data set [1] (serum) is listed as 120 nM.
